Experimental data published in patent US11766434B2, “Pyrimidinone derivatives as CDC7 inhibitors” (Cancer Research Technology Limited, priority 2016, dated 2023).

Key:
Cdc7 [1] = target: T1, Cdc7 (Homo sapiens, UniProt O00311); test: Cdc7 cell pharmacodynamics assay Method 2: pS40MCM2 levels in HCT116 cells; format: cell-based; parameters: endogenous in cells; details: 18 hours treatment, read-out: Biomarker Method 2 (pEC50) (converted)
From the text: This protocol describes a method to investigate the inhibition of Cdc7 activity by measuring pS40MCM2 levels in cells, after treatment with compounds.
• HCT116 cells (ATCC, #CCL-247) • McCoys 5A with L-glutamine (Cellgro, #10-050-CV) • 10% FCS (Cellgro, #35-010-CV) • D-PBS without CaCl2 and MgCl2 (Cellgro, #21-031-CV) • Trypsin/EDTA (Cellgro, #25-052-CL) • BSA (Calbiochem, 126593) • Cell Extraction Buffer (Invitrogen FNN0011) • Protease inhibitor cocktail (Sigma P-2714) • PMSF 0.3M stock in DMSO (Sigma P7626) • Antibody—rabbit pMCM2 Ser40 (Abeam, AB133243) • Antibody—goat MCM2 (Bethyl #A300-122A) • Antibody—goat Anti Rabbit IgG HRP (Thermo, 31462) • SuperSignal ELISA Pico Chemiluminescent Substrate (Perbio Science UK Ltd 37069) • 10×PBS (Growcells, MRGF-6236) • Triton X100 (Sigma, P-T8787) • DMSO (Fisher, D128-1) • 2-Propanol (J. T. Baker, 9095-03) Method • Seed 1×10^6 HCT116 cells into each of two 175 cm^2 flask containing 30 mL Cell Growth Media and incubate at 37° C., 5% CO2 for 3 days. • Harvest the cells from one T175 cm^2 flask and count. • Dilute with Cell Growth Media to a cell density of 2×10^5. Dispense 100 μL to each well (20,000 HCT116 cells/well) of TC treated 96-well plate(s). • Allow cells to settle overnight in incubator set at 37° C. and 5% CO2. • Cell treatment: Transfer 0.25 μL/well from the compound plate to the wells of the cell plate(s). This is a 1:400 dilution of compound in the assay. • Once all cells are treated place the cells back to the incubator and incubate for 18 hours. • Dilute the capture antibody (total MCM2 #A300-122A) 1 in 250 in the required volume of PBS (5 mL per assay plate, plus 5 mL for dead volume) and add 50 μL to each well of a Hybond plate except wells A12 & B12. Seal the plate and incubate at room temperature fora minimum of 2 hours. • Defrost aliquot of Invitrogen Cell Extraction Buffer (FNN0011) on ice and supplement with appropriate volume of both Sigma protease inhibitor cocktail (P-2714) and PMSF (final cone 1 mM from a 1 M stock in DMSO). • After the 6 hour or 18 hour cell treatment time, tap out the media from the assay plates and place them in the −70° C. freezer for at least 5 minutes. • Flick out the remaining liquid in the previously prepared capture Ab plate(s) and add 200 μL 2% BSA per well. Incubate for 1 hour at room temperature. • Remove plates from freezer and add 20 μL of ice cold complete lysis buffer. Incubate cells for 30 minutes at 4° C. • Add 30 μL per well 2% BSA • At the end of the 1 hour incubation, wash the Capture/ELISA plate(s) with Wash Buffer on the BioTek plate washer. • Transfer 40 μL per well of the lysis plate(s) to the same wells in the Capture/ELISA plate. Incubate cells overnight at 4° C. • At the end of the overnight incubation, wash the ELISA plate(s) with Wash Buffer on BioTek plate washer. • Prepare Detection Antibody Buffer and dispense 50 μL to all wells of ELISA plate(s) except wells G1 & H1. Cover plate and incubate at room temperature for 2 hours with gentle shaking. • At the end of the 2 hour incubation, wash the ELISA plate(s) with Wash Buffer on the BioTek plate washer. • Prepare the Conjugated Antibody Buffer and dispense 50 μL to all wells of ELISA plate(s). • Cover the plate and incubate at room temperature for 1 hour with gentle shaking. • At the end of the 1 hour incubation, wash the ELISA plate(s) with Wash Buffer on the BioTek plate washer. • Prepare Substrate Buffer and dispense 50 μL to all wells of ELISA plate(s). • Incubate for a minimum of 10 minutes and read plates on the EnVision 2100 Multilabel Reader (Mirror: Luminescence (404) & Luminescence 700 (212); Measurement Height: 6.5 mm; Measurement Time: 0.2 s). Method 3

Cdc7/Dbf4 = Cdc7/Dbf4 (Homo sapiens, UniProt O00311); test: Cdc7 biochemical assay Method 2: Cdc7/Dbf4 Enzyme TR-FRET Assay measuring pS40MCM2; details: pS40 MCM2 peptide, 1 μM ATP, 25° C., 120 minutes, read-out: Biochemical Method 2 (pIC50) (converted)
Procedure: This protocol describes a method for assaying a compounds' ability to inhibit Cdc7 activity by measuring pS40MCM2 levels in a Cdc7/Dbf4 Enzyme TR-FRET Assay.
2.5 nM Cdc7/Dbf4 was incubated with 100 nM of biotin-labelled peptide 35-TDALTS(pS)PGRDLP in the presence of 1 μM ATP at 25° C. for 120 minutes. The phosphorylation of the peptide was detected using TR-FRET. Anti-Mcm2 (pS40) antibody, Terbium anti-rabbit secondary antibody and Streptavidin-Alexa Fluor488 form the detection system.

Cdc7/ASK = Cdc7/ASK (Homo sapiens, UniProt O00311); test: Cdc7 biochemical assay Method 1: 384 well ELISA, MCM2 whole protein substrate, Phospho MCM2 (S53) antibody; parameters: purchased; details: ATP 2 μM, 90 minutes, read-out: Biochemical method 1 (pIC50) (converted)
Procedure: This protocol describes a method for assaying Cdc7/ASK for activity. The assay is a 384 well ELISA assay, utilising a whole protein substrate (MCM2) and an antibody against Phospho MCM2 (S53). This site is thought to be specific to Cdc7/ASK phosphorylation and the assay has been validated using knockout mutants.
• TBS: 25 mM Tris pH 7.2, 150 mM NaCl. (Dilute 10× stock by 1:10). • Wash Buffer: TBS+0.05% Tween 20. (Add 100 mL 1 M Tris pH 7.2, 120 mL 5 M NaCl and 2 mL 100% Tween 20 per 4 L). • Kinase Reaction Buffer: 50 mM Tris-HCl pH 8.5, 10 mM MgCl2, 1 mM DTT. (Dilute 10× stock by 1:10 and add 100 μL 1M DTT per 100 mL prior to assay). • Diethanolamine Buffer: 1 M diethanolamine pH 9.8, 0.5 mM MgCl2. • Stop Solution: 1 M NaOH. • MCM2 was expressed and purified in-house and used in the assay at a final assay concentration of 436 ng/well. • Cdc7/ASK is purchased from commercial suppliers and used in the assay at a final assay concentration of 37.97 ng/well or 20.63 nM. • ATP used as a final assay concentration of 2 μM. • Primary Antibody: Rabbit anti-Phospho MCM2 (S53 Antibody (BL3353)), is purchased from commercial suppliers at 0.2 mg/mL and used at a final assay concentration by diluting 1:800 in TBS. • Secondary Antibody: Anti-Rabbit/AP Antibody is supplied is purchased from commercial suppliers at 1 mg/mL and used at a final assay concentration by diluting 1:2000 in TBS. • Development Reagent: Dissolve one 20 mg PNPP tablet (Sigma, product N2765, 20 mg per tablet) per 20 mL diethanolamine Buffer (or one 5 mg PNPP tablet per 5 mL diethanolamine buffer). Cover in foil and leave shaking on a roller shaker at room temperature for up to an hour to dissolve. Methods • 1. Add 20 μL 1× working stock of Substrate (MCM2) in TBS to all wells of a clear, 384 well, Nickel-chelate microplate to give a final concentration of 250 ng/well. Incubate at room temperature for at least 1 hour. Plates can be pre-coated for 1 hour and stored at 4° C. for up to 8 days. • 2. Wash with TBS+0.05% Tween 20 (80 μL x 3). • 3. Add 2 μL 10× test compounds, including the positive control, in 40% DMSO/water to ‘test’ wells. Add 2 μL 40% DMSO/water to ‘control’ and ‘blank’ wells. The final DMSO concentration will be 4%. • 4. Add 13 μL CDCl7/ASK Kinase (1.5× stock) in Kinase Reaction Buffer to ‘test’ and ‘control’ wells to give a final concentration of […]. Add 13 μL Kinase Reaction Buffer to ‘blank’ wells. • 5. Add 5 μL ATP (4× stock) in Kinase Reaction Buffer to all wells to give a final concentration of 2 μM. • 6. Incubate at room temperature for 90 minutes. • 7. Wash with TBS+0.05% Tween 20 (80 μL x 3). • 8. Add 20 μL 1× working solution of Primary Antibody in TBS to all wells. Incubate at room temperature for 30 minutes. • 9. Wash with TBS+0.05% Tween 20 (80 μL x 3). • 10. Add 20 μL 1× working solution of Secondary Antibody in TBS to all wells. Incubate at room temperature for 30 minutes. • 11. Wash with TBS+0.05% Tween 20 (80 μL x 3). • 12. Add 20 μL 1× Development Reagent to all wells. • 13. Incubate at room temperature for 2 hours. Stop the reaction by adding 20 μL Stop Solution to all wells and record Absorbance on a Pherastar plate reader.
Percentage inhibition values were calculated from absorbance values, using the no compound (DMSO) and no enzyme control values as 0% and 100% inhibition, respectively. IC50 determination was performed with ExcelFit software (IDBS) using curve fit 205. Z′ factors were determined for each plate tested and were all above 0.5.

Cdc7 [2] = target: T1, Cdc7; test: Cdc7 cell pharmacodynamics assay Method 1: pS53MCM2 levels in HCT116 cells; format: cell-based; parameters: endogenous in cells; details: 6 hours treatment, read-out: Biomarker Method 1 (pEC50) (converted)
From the text: This protocol describes a method to investigate the inhibition of Cdc7 activity of compounds by measuring pS53MCM2 levels in cells after treatment.
• HCT116 cells (wild type P53 positive) • McCoys 5A media (PAA Laboratories Ltd, E15-022) • 10% FCS (Sera Laboratories International Ltd, EU000F Batch: 108005) • 100× L-Glutamine (Invitrogen, 25030-024) • D-PBS without CaCl2 and MgCl2 (Invitrogen, ref. 14190-094) • Trypsin/EDTA (Invitrogen 25300-054) • 2% BSA in PBS • Cell Extraction Buffer (Invitrogen FNN0011) • Protease inhibitor cocktail (Sigma P-2714) • PMSF 0.3M stock in DMSO (Sigma P7626) • Antibody—rabbit pMCM2 Ser53 (Bethyl #A300-756A) • Antibody—goat MCM2 (Bethyl #A300-122A) • Antibody—goat Anti Rabbit IgG HRP (Perbio Science UK Ltd 31462) • 1×PBS • FACE Wash buffer (0.02% Triton X100 in 1×PBS) • SuperSignal ELISA Pico Chemiluminescent Substrate (Perbio Science UK Ltd 37070) Method • 72 hours prior to the start of the experiment plate 1×10^6 HCT116 cells in a 150 cm^2 flask in complete McCoys 5A media (+10% FCS+1× L-glutamine). • Plate 20,000 HCT116 cells per well in standard TC treated 96 well plate in 100 μL complete McCoys 5A media. • Allow cells to settle overnight in incubator set at 37° C. and 5% CO2. • Remove intermediate plate from fridge and place at 37° C. overnight to allow to equilibrate. • Cell treatment: cell assay plate 100 μL; daughter to cell transfer volume 3.33 μL; daughter volume 45 μL; mother plate to daughter volume 5 μL. • Once all cells are treated remove the cells to the incubator and incubate for 6 hours. • Dilute the capture antibody (total MCM2 #A300-122A) 1 in 250 in the required volume of PBS (5 mL per assay plate) and add 50 μL to each well of a Hybond plate excluding wells 12E to 12H. In these wells add 50 μL PBS. Seal the plate and incubate at room temperature fora minimum of 2 hours. • Defrost aliquot of Invitrogen Cell Extraction Buffer (FNN0011) on ice and supplement with appropriate volume of both Sigma protease inhibitor cocktail (P-2714) and PMSF (final cone 1 mM from a […] in DMSO). • After the 6 hour cell treatment time tap out the media from the assay plates and place them in the −70° C. freezer for at least 5 minutes. • Remove plates from freezer and add 20 μL of ice cold complete lysis buffer on ice. Incubate cells for 30 minutes at 4° C. • Add 80 μL per well 2% BSA. • Transfer 80 μL from the lysis plate to the same wells in the capture/ELISA plate. Cover with plate seal and incubate plates overnight at 4° C. • Wash plates with PBS, remove any residual remaining liquid and add 50 μL per well of pMCM2 Ser53 antibody (#A300-756A) diluted 1 in 100 in 2% BSA. Cover plate and incubate at room temperature for 2 hours with gentle shaking. • Wash plates with PBS, remove any residual remaining liquid and Incubate with 50 μL goat anti rabbit antibody (1 in 800 dilution in 2% BSA) for 1 hour at room temperature. • Wash plates with PBS, remove any residual remaining liquid and add 50 μL mixed SuperSignal Pico substrate. • Incubate each plate for 5 minutes at room temperature shielding the plates from direct light (with a cover plate). Read plates with the luminescent detection. Method 2

Cdc7/Dbf4, sequence (O00311 whole entry): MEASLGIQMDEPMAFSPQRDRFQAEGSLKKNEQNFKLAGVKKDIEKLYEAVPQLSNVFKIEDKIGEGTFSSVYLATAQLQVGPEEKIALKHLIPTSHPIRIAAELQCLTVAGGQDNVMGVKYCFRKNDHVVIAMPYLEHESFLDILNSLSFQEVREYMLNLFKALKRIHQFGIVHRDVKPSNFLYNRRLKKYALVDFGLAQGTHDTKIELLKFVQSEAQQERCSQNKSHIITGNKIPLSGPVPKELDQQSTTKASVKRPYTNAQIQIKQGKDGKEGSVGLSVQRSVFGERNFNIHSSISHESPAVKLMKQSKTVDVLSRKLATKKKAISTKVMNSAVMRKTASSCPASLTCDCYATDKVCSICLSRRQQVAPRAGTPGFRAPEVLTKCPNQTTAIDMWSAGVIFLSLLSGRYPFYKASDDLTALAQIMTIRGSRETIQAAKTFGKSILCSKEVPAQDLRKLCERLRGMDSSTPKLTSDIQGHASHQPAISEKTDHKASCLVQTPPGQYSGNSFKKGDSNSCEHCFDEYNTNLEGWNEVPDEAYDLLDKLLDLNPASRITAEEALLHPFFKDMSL
Cdc7/Dbf4, sequence (Q9UBU7 whole entry partner): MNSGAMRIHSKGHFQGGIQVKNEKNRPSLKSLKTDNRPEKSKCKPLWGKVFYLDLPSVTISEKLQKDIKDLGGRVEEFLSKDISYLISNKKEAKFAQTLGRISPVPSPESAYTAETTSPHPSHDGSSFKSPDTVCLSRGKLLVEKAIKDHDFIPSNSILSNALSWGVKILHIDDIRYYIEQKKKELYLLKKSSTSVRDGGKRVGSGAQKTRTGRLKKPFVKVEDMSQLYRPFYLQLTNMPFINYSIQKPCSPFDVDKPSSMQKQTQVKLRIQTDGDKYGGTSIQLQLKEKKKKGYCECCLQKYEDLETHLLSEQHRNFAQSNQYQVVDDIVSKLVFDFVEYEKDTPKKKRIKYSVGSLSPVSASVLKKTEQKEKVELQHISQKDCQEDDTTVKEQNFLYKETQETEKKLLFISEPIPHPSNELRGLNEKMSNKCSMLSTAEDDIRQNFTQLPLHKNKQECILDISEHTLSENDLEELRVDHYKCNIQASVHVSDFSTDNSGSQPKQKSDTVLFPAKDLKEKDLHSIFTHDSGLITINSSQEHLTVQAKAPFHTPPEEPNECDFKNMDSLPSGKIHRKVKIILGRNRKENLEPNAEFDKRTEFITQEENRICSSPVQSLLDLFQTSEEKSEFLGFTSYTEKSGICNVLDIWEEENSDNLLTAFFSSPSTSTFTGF
T1 sequence (O00311 whole entry): as the sequence (O00311 whole entry) above
T1 sequence (Q9UBU7 whole entry partner): as the sequence (Q9UBU7 whole entry partner) above
Cdc7/ASK, sequence (O00311 whole entry): as the sequence (O00311 whole entry) above
Cdc7/ASK, sequence (Q9UBU7 whole entry partner): as the sequence (Q9UBU7 whole entry partner) above

EC50 (Cdc7 [1]) [nM]	IC50 (Cdc7/Dbf4) [nM]	IC50 (Cdc7/ASK) [nM]	EC50 (Cdc7 [2]) [nM]	SMILES
100	–	–	–	CC1CNCCN1c1nc(-c2c[nH]c3ncccc23)[nH]c(=O)c1Cl (stereo in doubt) [Compound 55, 5-chloro-4-[(2R)-2-methylpiperazin-1-yl]-2-(1H-pyrrolo[2,3-b]pyridin-3-yl)-1H-pyrimidin-6-one 2,2,2-trifluoroacetic acid]
–	72.4	–	–	C[C@@H]1COCCN1c1nc(-c2cnn3ccccc23)[nH]c(=O)c1Cl [Compound 54, 5-chloro-4-[(3R)-3-methylmorpholin-4-yl]-2-pyrazolo[1,5-a]pyridin-3-yl-1H-pyrimidin-6-one]
–	5.89	–	–	Cc1[nH]ncc1-c1nc(N2CCOCC2)c(Cl)c(=O)[nH]1 [Compound 51, 5-chloro-2-(5-methyl-1H-pyrazol-4-yl)-4-morpholino-1H-pyrimidin-6-one]
–	7.41	21.4	339	Cc1ncsc1-c1nc(N2CCN[C@@H](C(C)C)C2)c(Cl)c(=O)[nH]1 [Compound 39, 5-chloro-4-[(3S)-3-isopropylpiperazin-1-yl]-2-(4-methylthiazol-5-yl)-1H-pyrimidin-6-one]
–	7.24	2.75	–	Cc1[nH]ncc1-c1nc(C2CCOCC2)c(Cl)c(=O)[nH]1 [Compound 16, 5-chloro-2-(3-methyl-1H-pyrazol-4-yl)-4-tetrahydropyran-4-yl-1H-pyrimidin-6-one]
